{"source": "paper PMC9639148", "about": "(Journal for Immunotherapy of Cancer, 2022)", "key": {"[1]": {"tested_on": "KYSE70 cells", "assay": "Transcriptome sequencing of KYSE70 cells", "assay_type": "cell-based, human", "conditions": "10 µM for 48 hours"}, "[2]": {"target": "T1, APOBEC3A (Homo sapiens, UniProt P31941)", "T1 sequence (P31941 whole entry)": "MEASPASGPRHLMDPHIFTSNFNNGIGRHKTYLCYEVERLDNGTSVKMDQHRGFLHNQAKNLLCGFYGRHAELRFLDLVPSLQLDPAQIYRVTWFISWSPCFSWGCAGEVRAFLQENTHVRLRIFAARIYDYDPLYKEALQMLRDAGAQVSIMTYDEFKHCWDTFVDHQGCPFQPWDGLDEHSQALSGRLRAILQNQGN", "assay": "biochemical", "conditions": "read-out: inhibition rate of APOBEC3A deaminase activity"}, "[3]": {"tested_on": "AOM/DSS-induced colon cancer", "assay": "AOM/DSS-induced spontaneous colon cancer mouse model", "assay_type": "in vivo"}, "[4]": {"tested_on": "APOBEC3", "assay": "Mouse whole exome sequencing of esophagus tissues", "assay_type": "in vivo"}, "[5]": {"tested_on": "IL-7", "assay": "ELISA, IL-7 in KYSE70 supernatants", "assay_type": "cell-based, human", "conditions": "10 µM, 48 hours, vs vehicle supernatants; IL-7 expression level was too low"}, "[6]": {"tested_on": "IL-15", "assay": "ELISA, IL-15 in KYSE70 supernatants", "assay_type": "cell-based, human", "conditions": "10 µM, 48 hours, vs vehicle supernatants"}, "[7]": {"target": "T2, APOBEC3B (Homo sapiens, UniProt Q9UH17)", "T2 sequence (Q9UH17 whole entry)": "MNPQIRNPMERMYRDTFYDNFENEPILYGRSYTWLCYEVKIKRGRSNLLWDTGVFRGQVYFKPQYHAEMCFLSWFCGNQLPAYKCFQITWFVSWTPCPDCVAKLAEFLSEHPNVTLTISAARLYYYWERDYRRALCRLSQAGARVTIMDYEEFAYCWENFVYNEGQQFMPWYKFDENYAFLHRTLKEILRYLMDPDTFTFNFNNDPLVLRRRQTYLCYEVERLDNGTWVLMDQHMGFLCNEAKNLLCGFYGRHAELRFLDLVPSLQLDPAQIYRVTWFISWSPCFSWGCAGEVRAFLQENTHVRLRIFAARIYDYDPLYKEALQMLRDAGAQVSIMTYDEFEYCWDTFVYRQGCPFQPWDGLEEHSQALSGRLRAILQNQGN", "assay_type": "biochemical"}, "[8]": {"tested_on": "IL-7 and IL-15", "assay": "qRT-PCR of IL-7 and IL-15 in KYSE70 cells", "assay_type": "cell-based, human", "conditions": "10 µM"}, "[9]": {"tested_on": "4-NQO-induced ESCC", "assay": "4-NQO-induced spontaneous ESCC mouse model", "assay_type": "in vivo"}, "[10]": {"target": "T3, APOBEC3G (Homo sapiens, UniProt Q9HC16)", "T3 sequence (Q9HC16 whole entry)": "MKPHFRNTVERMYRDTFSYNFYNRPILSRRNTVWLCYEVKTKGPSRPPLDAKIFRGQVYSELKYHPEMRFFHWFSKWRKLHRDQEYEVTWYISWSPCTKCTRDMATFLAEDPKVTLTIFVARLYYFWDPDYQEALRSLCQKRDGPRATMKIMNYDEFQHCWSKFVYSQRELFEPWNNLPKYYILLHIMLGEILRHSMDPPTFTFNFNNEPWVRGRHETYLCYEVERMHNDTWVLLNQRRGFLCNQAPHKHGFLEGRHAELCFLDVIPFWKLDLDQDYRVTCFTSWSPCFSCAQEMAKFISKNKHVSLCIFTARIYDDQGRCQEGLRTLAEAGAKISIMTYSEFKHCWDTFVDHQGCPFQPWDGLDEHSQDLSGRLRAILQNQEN", "assay": "biochemical", "conditions": "read-out: inhibition rate of APOBEC3G deaminase activity"}, "[11]": {"tested_on": "KYSE150-vector cells", "assay": "MST within KYSE150-vector cells"}, "[12]": {"tested_on": "CD8^+ T cells", "assay": "Activated PBMCs cocultured with KYSE70 cells", "assay_type": "cell-based, human", "conditions": "10 µM, coculture with KYSE70 cells"}, "[13]": {"tested_on": "CD8^+ T cells", "assay": "Activated human PBMCs directly treated", "assay_type": "cell-based", "conditions": "10 µM for 3 days"}, "[14]": {"tested_on": "KYSE70 cells", "assay": "Cell viability assay", "assay_type": "cell-based, human", "conditions": "0.01-100 μM, MTT"}, "[15]": {"assay": "In vivo toxicity analysis, 4-NQO-induced ESCC mice", "design": "species or system mouse"}, "[16]": {"assay": "In vivo toxicity analysis, AOM/DSS-induced colon cancer mice", "design": "species or system mouse", "conditions": "0.5 mg/kg each i.p."}, "[17]": {"tested_on": "APOBEC3B", "assay": "qRT-PCR of APOBEC3B mRNA in KYSE70 cells", "assay_type": "cell-based, human", "conditions": "48 hours"}, "[18]": {"target": "T2, APOBEC3B", "assay": "Microscale thermophoresis", "assay_type": "binding"}, "[19]": {"assay": "Thyroid function in vivo, naive C57BL/6J mice", "design": "species or system mouse", "conditions": "0.5, 2 and 8 mg/kg i.p. every 2 days for 2 weeks, vs NS group"}, "[20]": {"tested_on": "CD8+ T cells", "assay": "T cell migration assay", "assay_type": "cell-based, human", "conditions": "supernatant of KYSE70 pretreated with 10 μM for 48 hours"}, "[21]": {"tested_on": "HET-1A cells", "assay": "Cell viability assay", "assay_type": "cell-based, human", "conditions": "MTT, 24, 48 and 72 hours"}, "[22]": {"target": "T3, APOBEC3G", "assay": "MST, APOBEC3G protein", "assay_type": "binding"}, "[23]": {"tested_on": "APOBEC3B overexpressed E. coli", "assay": "Bacterial resequencing", "assay_type": "cell-based, Escherichia coli", "conditions": "2 µM for 3 days"}, "[24]": {"tested_on": "PD-L1 in RKO cell", "assay": "PD-L1 expression by flow cytometry, RKO", "assay_type": "cell-based, human", "conditions": "48 hours"}, "[25]": {"target": "T2, APOBEC3B", "assay": "Fluorescence-based ssDNA cytosine deamination assay", "assay_type": "biochemical", "conditions": "IC50, dose-dependent assay, figure 2D, E"}, "[26]": {"tested_on": "PD-L1 in KYSE70 cell", "assay": "PD-L1 expression by flow cytometry, KYSE70", "assay_type": "cell-based, human", "conditions": "10 µM and 100 µM, 48 hours"}, "[27]": {"tested_on": "IFN-γ^+CD8^+ T cells", "assay": "Ex vivo intracellular cytokine staining, 4-NQO-induced ESCC mice", "assay_type": "in vivo, mouse", "conditions": "0.5 mg/kg each i.p."}, "[28]": {"tested_on": "CD8^+ T cells", "assay": "Coculture assay: PBMCs cultured in supernatants of KYSE70 cells", "assay_type": "cell-based, human", "conditions": "supernatants of KYSE70 cells pretreated with 10 µM for 48 hours, PBMCs 3 days"}, "[29]": {"conditions": "0.5, 2 and 8 mg/kg i.p. every 2 days for 2 weeks"}, "[30]": {"tested_on": "IFN-γ^+CD8^+ T cells", "assay": "Ex vivo intracellular cytokine staining, AOM/DSS-induced colon cancer mice", "assay_type": "in vivo, mouse", "conditions": "0.5 mg/kg each i.p."}, "[31]": {"target": "T1, APOBEC3A", "assay": "MST, APOBEC3A protein", "assay_type": "binding"}, "[32]": {"target": "KYSE150-APOBEC3B cells (Homo sapiens, UniProt Q9UH17)", "sequence (Q9UH17 whole entry)": "as the sequence (Q9UH17 whole entry) above", "assay": "MST within KYSE150-APOBEC3B cells", "assay_type": "binding"}, "[33]": {"conditions": "both low (0.5 mg/kg) and high dose (2 mg/kg) i.p."}}}
{"compound": "N[C@@H](Cc1cc(I)c(O)c(I)c1)C(=O)O", "note": "[SMC247, 3,5-diiodotyrosine]", "values": [{"measurement": "IL-7 and IL-15 expression (transcriptome sequencing)", "setting": "[1]", "result": "significantly upregulated"}, {"measurement": "inhibition at 100 µM", "setting": "[2]", "result": "< 50", "unit": "%"}, {"measurement": "H&E of colon tissue", "setting": "[3]; 0.5 mg/kg each i.p.", "result": "the colonic mucosa was intact and the glandular cells were basically arranged in order"}, {"measurement": "disease activity index (DAI)", "setting": "[3]; 0.5 mg/kg each i.p.", "result": "decreased"}, {"measurement": "length of colon", "setting": "[3]; 0.5 mg/kg each i.p.", "result": "without changing the length of colon basically"}, {"measurement": "number and size of tumors in colonic epithelial tissues", "setting": "[3]; 0.5 mg/kg each i.p.", "result": "significantly reduced"}, {"measurement": "body weight loss", "setting": "[3]; 0.5 mg/kg each i.p. every 2 days for 9 weeks", "result": "significantly slow down the trend of body weight loss"}, {"measurement": "enteritis phenomenon", "setting": "[3]; mouse, in vivo", "result": "significantly relieved"}, {"measurement": "C>A mutation type", "setting": "[4]; 0.5 mg/kg i.p.", "result": "reduction"}, {"measurement": "contribution of APOBEC activity related signatures (SBS2 and SBS13)", "setting": "[4]; 0.5 mg/kg i.p.", "result": "weakened"}, {"measurement": "mutation counts of C>T and C>G", "setting": "[4]; 0.5 mg/kg i.p.", "result": "reduced"}, {"measurement": "number of mutations at exome levels", "setting": "[4]; 0.5 mg/kg i.p. every 2 days for 2 weeks, vs NS", "result": "significantly reduced"}, {"measurement": "secretion level of IL-7", "setting": "[5]", "result": "significantly greater"}, {"measurement": "secretion level of IL-15", "setting": "[6]", "result": "significantly greater"}, {"measurement": "deaminase activity of APOBEC3B", "setting": "[7]", "result": "significantly inhibited"}, {"measurement": "product amount", "setting": "[7]", "result": "reduced in a dose-dependent manner"}, {"measurement": "IL-7 and IL-15 expression levels (qRT-PCR)", "setting": "[8]", "result": "consistent with the above sequencing results"}, {"measurement": "number and length of ESCC tumor tissue", "setting": "[9]; 0.5 mg/kg or 2 mg/kg i.p. every 2 days for 2 weeks, vs NS", "result": "significantly reduced"}, {"measurement": "body weight", "setting": "[9]; [33]", "result": "slow down the loss trend of body weight"}, {"measurement": "overall survival of mice", "setting": "[9]; [33]", "result": "significantly prolong"}, {"measurement": "H&E of esophagus tissues", "setting": "[9]; combination study", "result": "effectively alleviated"}, {"measurement": "number and length of ESCC tumor tissues", "setting": "[9]; combination study, 0.5 mg/kg each i.p. every 2 days for 2 weeks", "result": "significantly reduced"}, {"measurement": "inhibition at 100 µM", "setting": "[10]", "result": "< 50", "unit": "%"}, {"measurement": "affinity to KYSE150-vector cells", "setting": "[11]", "result": "no affinity"}, {"measurement": "proliferation of CD8^+ T cells and proportion of IFN-γ^+CD8^+ T cells", "setting": "[12]", "result": "promoted"}, {"measurement": "function of CD8^+ T cells in the absence of tumor cells", "setting": "[13]", "result": "did not directly affect the function of CD8^+ T cells"}, {"measurement": "proliferation of KYSE70 cells", "setting": "[14]", "result": "could not inhibit the proliferation"}, {"measurement": "AST and ALT in serum", "setting": "[15]; 0.5 mg/kg vs NS group", "result": "no significant differences"}, {"measurement": "H&E staining of main viscera", "setting": "[15]; heart, liver, spleen, lung, kidney", "result": "no obvious toxic effects"}, {"measurement": "toxic effects (H&E of organs, AST and ALT)", "setting": "[16]", "result": "no obvious toxic effects"}, {"measurement": "expression of APOBEC3B", "setting": "[17]", "result": "down-regulated"}, {"measurement": "Kd", "setting": "[18]", "result": 0.065, "unit": "µM"}, {"measurement": "thyroid-stimulating hormone, free triiodothyronine (fT3) and free thyroxine (fT4)", "setting": "[19]", "result": "no significant difference"}, {"measurement": "migration of CD8^+ T cells", "setting": "[20]", "result": "could not promote the migration"}, {"measurement": "viability of HET-1A cells", "setting": "[21]", "result": "did not affect the viability"}, {"measurement": "binding to APOBEC3G", "setting": "[22]", "result": "weakly bound"}, {"measurement": "C>T transversion driven by APOBEC3B in E. coli genome", "setting": "[23]", "result": "significant reduced"}, {"measurement": "expression of PD-L1", "setting": "[24]", "result": "up-regulate"}, {"measurement": "IC50", "setting": "[25]", "result": 1.69, "unit": "µM"}, {"measurement": "expression of PD-L1", "setting": "[26]", "result": "up-regulate"}, {"measurement": "proportions of IFN-γ^+CD8^+ T cells in both spleen and lymph node", "setting": "[27]", "result": "increased"}, {"measurement": "promotion effect on CD8^+ T cells", "setting": "[28]", "result": "still existed"}, {"measurement": "blood routine indexes (WBC, HGB, PLT, RBC) and blood biochemical (AST and ALT) indexes", "setting": "[29]", "result": "within the normal range"}, {"measurement": "proportions of IFN-γ^+CD8^+ T cells in both spleen and lymph node", "setting": "[30]", "result": "increased"}, {"measurement": "binding to APOBEC3A", "setting": "[31]", "result": "weakly bound"}, {"measurement": "Kd", "setting": "[32]", "result": "6.14 ± 7.93", "unit": "µM"}]}
